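Protocol summary: plate cells (96-well), add compound at 5 concentrations, incubate 48 h, interpolate endpoints linearly. GI50 = concentration required for 50% inhibition of growth. TGI is the concentration that stops growth completely.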
Legend:
Assay in all cases: growth of human tumour cells (NCI), 48 h
[1] = test system: CCRF-CEM leukemia
[2] = test system: HCC-2998 colon
[3] = test system: NCI-H23 lung
[4] = test system: UO-31 renal
[5] = test system: ACHN renal
[6] = test system: MALME-3M melanoma
[7] = test system: SF-539 CNS
[8] = test system: OVCAR-4 ovarian
[9] = test system: U251 CNS
[10] = test system: HCT-15 colon
[11] = test system: SW-620 colon
[12] = test system: UACC-62 melanoma
[13] = test system: SNB-19 CNS
[14] = test system: DLD-1 colon
[15] = test system: HCT-116 colon
[16] = test system: NCI-H522 lung
[17] = test system: SNB-78 CNS
[18] = test system: OVCAR-5 ovarian
[19] = test system: NCI-H460 lung
[20] = test system: A549 NSCLC
[21] = test system: RPMI-8226 leukemia
[22] = test system: LOX IMVI melanoma
[23] = test system: OVCAR-8 ovarian
[24] = test system: XF 498 CNS
[25] = test system: K-562 leukemia
[26] = test system: KM20L2 colon
[27] = test system: SN12C renal
[28] = test system: RXF 393 renal
[29] = test system: SK-MEL-5 melanoma
[30] = test system: M19-MEL melanoma
[31] = test system: SK-MEL-2 melanoma
[32] = test system: UACC-257 melanoma
[33] = test system: HL-60(TB) leukemia
[34] = test system: CAKI-1 renal
[35] = test system: HOP-62 NSCLC
[36] = test system: IGROV1 ovarian
[37] = test system: SK-OV-3 ovarian
[38] = test system: NCI-H226 lung
[39] = test system: SF-295 CNS
[40] = test system: DMS 114 small cell lung
[41] = test system: SK-MEL-28 melanoma
[42] = test system: HT29 colon
[43] = test system: MOLT-4 leukemia
[44] = test system: LXFL 529 NSCLC
[45] = test system: OVCAR-3 ovarian
[46] = test system: SR leukemia
[47] = test system: COLO 205 colon
[48] = test system: M14 melanoma
[49] = test system: TK-10 renal
[50] = test system: DMS 273 small cell lung
[51] = test system: KM12 colon
[52] = test system: HOP-92 NSCLC
[53] = test system: EKVX NSCLC
[54] = test system: 786-0 renal
[55] = test system: SNB-75 CNS
[56] = test system: A498 renal
[57] = test system: RXF-631 renal

Compound: CCC[CH2][Sn]1([CH2]CCC)[O]CC(c2ccccn2)C[O]1
- GI50 [1]: 4.13 µM
- TGI [1]: 34.8 µM
- GI50 [2]: 19.4 µM
- TGI [2]: 34.3 µM
- GI50 [3]: 17.1 µM
- TGI [3]: 35.3 µM
- GI50 [4]: 19.4 µM
- TGI [4]: 35.5 µM
- GI50 [5]: 19.8 µM
- TGI [5]: 34 µM
- GI50 [6]: 7.93 µM
- TGI [6]: 19.8 µM
- GI50 [7]: 18.6 µM
- TGI [7]: 33.1 µM
- GI50 [8]: 20.7 µM
- TGI [8]: 37.9 µM
- GI50 [9]: 15.9 µM
- TGI [9]: 29.6 µM
- GI50 [10]: 18.2 µM
- TGI [10]: 32.6 µM
- GI50 [11]: 15.3 µM
- TGI [11]: 29.5 µM
- GI50 [12]: 14.1 µM
- TGI [12]: 28 µM
- GI50 [13]: 22.1 µM
- TGI [13]: 45 µM
- GI50 [14]: 15.3 µM
- TGI [14]: 29.8 µM
- GI50 [15]: 19.3 µM
- TGI [15]: 33.7 µM
- GI50 [16]: 3.14 µM
- TGI [16]: 11.8 µM
- GI50 [17]: 19.9 µM
- TGI [17]: 61.3 µM
- GI50 [18]: 21.3 µM
- TGI [18]: 42.6 µM
- GI50 [19]: 33.5 µM
- TGI [19]: > 100 µM
- GI50 [20]: 32.1 µM
- TGI [20]: > 100 µM
- GI50 [21]: 7.2 µM
- TGI [21]: 34.5 µM
- GI50 [22]: 13.7 µM
- TGI [22]: 27.7 µM
- GI50 [23]: 17.9 µM
- TGI [23]: 36.8 µM
- GI50 [24]: 17.9 µM
- TGI [24]: 32.7 µM
- GI50 [25]: 14.6 µM
- TGI [25]: 65.8 µM
- GI50 [26]: 29.6 µM
- TGI [26]: 73.3 µM
- GI50 [27]: 19.8 µM
- TGI [27]: 35.3 µM
- GI50 [28]: 19.5 µM
- TGI [28]: 36.7 µM
- GI50 [29]: 17 µM
- TGI [29]: 34.4 µM
- GI50 [30]: 14.8 µM
- TGI [30]: 29.2 µM
- GI50 [31]: 14 µM
- TGI [31]: 28.5 µM
- GI50 [32]: 17.3 µM
- TGI [32]: 32.4 µM
- GI50 [33]: 7.65 µM
- TGI [33]: 29.4 µM
- GI50 [34]: 7.39 µM
- TGI [34]: 22.1 µM
- GI50 [35]: 23.3 µM
- TGI [35]: 68.6 µM
- GI50 [36]: 20.2 µM
- TGI [36]: 36.6 µM
- GI50 [37]: 24.4 µM
- TGI [37]: 84.8 µM
- GI50 [38]: 31 µM
- TGI [38]: > 100 µM
- GI50 [39]: 20.3 µM
- TGI [39]: 38.1 µM
- GI50 [40]: 10.2 µM
- TGI [40]: 26.7 µM
- GI50 [41]: 15.4 µM
- TGI [41]: 29.4 µM
- GI50 [42]: 20.5 µM
- TGI [42]: 38.3 µM
- GI50 [43]: 17.2 µM
- TGI [43]: 56 µM
- GI50 [44]: 7.96 µM
- TGI [44]: 20.5 µM
- GI50 [45]: 16.7 µM
- TGI [45]: 30.5 µM
- GI50 [46]: 12.4 µM
- TGI [46]: 41.7 µM
- GI50 [47]: 17.5 µM
- TGI [47]: 31.7 µM
- GI50 [48]: 16.2 µM
- TGI [48]: 30.7 µM
- GI50 [49]: 18.9 µM
- TGI [49]: 33.3 µM
- GI50 [50]: 15.7 µM
- TGI [50]: 29.6 µM
- GI50 [51]: 23.2 µM
- TGI [51]: 59.4 µM
- GI50 [52]: 18.2 µM
- TGI [52]: 36.6 µM
- GI50 [53]: 15.5 µM
- TGI [53]: 36.2 µM
- GI50 [54]: 15.6 µM
- TGI [54]: 29.3 µM
- GI50 [55]: 22.5 µM
- TGI [55]: 58 µM
- GI50 [56]: 26.7 µM
- TGI [56]: 50.7 µM
- GI50 [57]: 15.4 µM
- TGI [57]: 29.5 µM

Source: PubChem BioAssay (NCI)
